US9326973B2, “Hepatitis C virus inhibitors” (priority 2012, dated 2016)

Each compound was assayed on HCV replicon, genotype-1a variant with glutamine 30 changed to glutamate in the NS5A protein (assay: microbe, parasite or virus in culture). Conditions: HCV replicon genotype 1a Q30E (Q→E) variant; test compound titrated with an NS5A-targeting compound (BMS-790052 fixed at 200 nM); ranking of synergist activity.
Assay type: cell-based, HCV genotype 1a
How it was run: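 Synergy was assessed by combining several fixed amounts of an NS5A-targeting compound with a titration of the second compound of interest.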

SMILES | Fold-Synergistic 1a (Q30E)
CN(C)C(=O)C(=O)N[C@H](c1nc(-c2ccc(-c3ccc(-c4c[nH]c([C@@H](NC(=O)C(=O)N(C)C)C(C)(C)C)n4)cc3)cc2)c[nH]1)C(C)(C)C [Compound W-10] | >100 fold
CC(C)(C)[C@H](NC(=O)[C@@]1(C)CC(F)(F)CO1)c1nc(-c2ccc(-c3ccc(-c4c[nH]c([C@@H](NC(=O)[C@@]5(C)CC(F)(F)CO5)C(C)(C)C)n4)cc3)cc2)c[nH]1 [Compound Y-77] | >100 fold
Cc1nnc(C(=O)N[C@H](c2nc(-c3ccc(-c4ccc(-c5c[nH]c([C@@H](NC(=O)c6nnc(C)o6)C(C)(C)C)n5)cc4)cc3)c[nH]2)C(C)(C)C)o1 [Compound L-89] | >10 fold
CC[C@H](NC(=O)[C@@H](NC(=O)OC)C(C)C)c1nc(-c2ccc(-c3ccc(-c4c[nH]c([C@H](CC)NC(=O)[C@@H](NC(=O)OC)C(C)C)n4)cc3)cc2)c[nH]1 [Compound N-41] | >10 fold
CCC(C)[C@H](NC(=O)CC(C)C)c1nc(-c2ccc(-c3ccc(-c4c[nH]c([C@@H](NC(=O)CC(C)C)C(C)CC)n4)cc3)cc2)c[nH]1 (some centres unmarked) [Compound N-34] | >100 fold
O=C(c1cncnc1)N1CCC[C@H]1c1ncc(-c2ccc(-c3ccc(-c4cnc([C@@H]5CCCN5C(=O)c5cncnc5)[nH]4)cc3)cc2)[nH]1 [Compound S-195] | <10 fold
CC(C)(C)[C@H](NC(=O)C1(CF)CCCCO1)c1nc(-c2ccc(-c3ccc(-c4c[nH]c([C@@H](NC(=O)C5(CF)CCCCO5)C(C)(C)C)n4)cc3)cc2)c[nH]1 (some centres unmarked) [Compound P-178] | >100 fold
COc1cccc(C2(C(=O)N[C@H](c3nc(-c4ccc(-c5ccc(-c6c[nH]c([C@@H](NC(=O)C7(c8cccc(OC)c8)CCC(C)CC7)C(C)(C)C)n6)cc5)cc4)c[nH]3)C(C)(C)C)CCC(C)CC2)c1 (some centres unmarked) [Compound S-289] | >100 fold
CC(C)(C)[C@H](NC(=O)C12CCC(CC1)CO2)c1nc(-c2ccc(-c3ccc(-c4c[nH]c([C@@H](NC(=O)C56CCC(CC5)CO6)C(C)(C)C)n4)cc3)cc2)c[nH]1 [Compound Y-74] | >100 fold
CC(C)(C)[C@H](NC(=O)C1CCOC1)c1nc(-c2ccc(-c3ccc(-c4c[nH]c([C@@H](NC(=O)C5CCOC5)C(C)(C)C)n4)cc3)cc2)c[nH]1 (some centres unmarked) [Compound W-129] | >10 fold
COC(=O)N(C)C1(C(=O)N[C@H](c2nc(-c3ccc(-c4ccc(-c5c[nH]c([C@@H](NC(=O)C6(N(C)C(=O)OC)CC6)C6(C)CC6)n5)cc4)cc3)c[nH]2)C2(C)CC2)CC1 [Compound L-30] | >100 fold
CC(C)CC(=O)N[C@@H](Cc1cccc2ccccc12)c1nc(-c2ccc(-c3ccc(-c4c[nH]c([C@H](Cc5cccc6ccccc56)NC(=O)CC(C)C)n4)cc3)cc2)c[nH]1 [Compound P-7] | <10 fold
CC(C)[C@H](NC(=O)C(C)(C)OCC(F)F)c1nc(-c2ccc(-c3ccc(-c4c[nH]c([C@@H](NC(=O)C(C)(C)OCC(F)F)C(C)C)n4)cc3F)cc2)c[nH]1 [Compound N-98] | >100 fold
CC(C)[C@H](NC(=O)[C@@H]1C[C@H](O)CN1C(=O)OC(C)(C)C)c1nc(-c2ccc(-c3ccc(-c4c[nH]c([C@@H](NC(=O)[C@@H]5C[C@H](O)CN5C(=O)OC(C)(C)C)C(C)C)n4)cc3)cc2)c[nH]1 [Compound W-100] | >100 fold
O=C(CC1CC1)N1CCC[C@H]1c1ncc(-c2ccc(-c3ccc(-c4cnc([C@@H]5CCCN5C(=O)CC5CC5)[nH]4)cc3)cc2)[nH]1 [Compound S-110] | <10 fold
CC(C)(C)[C@H](NC(=O)C1(F)CCCCC1)c1nc(-c2ccc(-c3ccc(-c4c[nH]c([C@@H](NC(=O)C5(F)CCCCC5)C(C)(C)C)n4)cc3)cc2)c[nH]1 [Compound S-286] | >100 fold
Cc1cc(-c2ccc(-c3c[nH]c([C@@H](NC(=O)C4(C)CCCCC4)C(C)C)n3)cc2)ccc1-c1c[nH]c([C@@H](NC(=O)C2(C)CCCCC2)C(C)C)n1 [Compound N-79] | >100 fold
Cc1ccoc1C(=O)N1CCC[C@H]1c1ncc(-c2ccc(-c3ccc(-c4cnc([C@@H]5CCCN5C(=O)c5occc5C)[nH]4)cc3)cc2)[nH]1 [Compound S-189] | >10 fold
CC(C)[C@H](NC(=O)[C@@H]1C2C[C@@H]2CN1C(=O)OC(C)(C)C)c1nc(-c2ccc(-c3ccc(-c4c[nH]c([C@@H](NC(=O)[C@@H]5C6C[C@@H]6CN5C(=O)OC(C)(C)C)C(C)C)n4)cc3)cc2)c[nH]1 (some centres unmarked) [Compound W-74] | >100 fold
CC(C)(CO)C(=O)N[C@H](c1nc(-c2ccc(-c3ccc(-c4c[nH]c([C@@H](NC(=O)C(C)(C)CO)C(C)(C)C)n4)cc3)cc2)c[nH]1)C(C)(C)C [Compound L-56] | >100 fold
O=C(CCn1ccc2ccccc21)N1CCC[C@H]1c1ncc(-c2ccc(-c3ccc(-c4cnc([C@@H]5CCCN5C(=O)CCn5ccc6ccccc65)[nH]4)cc3)cc2)[nH]1 [Compound S-151] | >10 fold

SMILES | Fold-Synergistic 1a (Q30E)
CC(C)C(N[S+]([O-])C(C)(C)C)c1ncc(-c2ccc(-c3ccc(-c4cnc([C@@H](N[S+]([O-])C(C)(C)C)C(C)C)[nH]4)cc3)cc2)[nH]1 (single isomer, unassigned) [Compound Y-61] | <10 fold
CC(C)(C)[C@H](NC(=O)[C@@H]1CCCCN1CC(F)(F)F)c1nc(-c2ccc(-c3ccc(-c4c[nH]c([C@@H](NC(=O)[C@@H]5CCCCN5CC(F)(F)F)C(C)(C)C)n4)cc3)cc2)c[nH]1 [Compound L-51] | >100 fold
CC(C)CC(=O)NC(C)(C)c1nc(-c2ccc(-c3ccc(-c4c[nH]c(C(C)(C)NC(=O)CC(C)C)n4)cc3)cc2)c[nH]1 [Compound N-26] | <10 fold
CC(=O)N(C)C1(C(=O)N[C@H](c2nc(-c3ccc(-c4ccc(-c5c[nH]c([C@@H](NC(=O)C6(N(C)C(C)=O)CCC6)C(C)(C)C)n5)cc4)cc3)c[nH]2)C(C)(C)C)CCC1 [Compound L-12] | >100 fold
CC(C)(C)[C@H](NC(=O)C12CCC(CC1)C2)c1nc(-c2ccc(-c3ccc(-c4c[nH]c([C@@H](NC(=O)C56CCC(CC5)C6)C(C)(C)C)n4)cc3)cc2)c[nH]1 [Compound S-261] | >100 fold
CC(C)(C(=O)N[C@H](c1nc(-c2ccc(-c3ccc(-c4c[nH]c([C@@H](NC(=O)C(C)(C)C(=O)N5CC6CC6C5)C(C)(C)C)n4)cc3)cc2)c[nH]1)C(C)(C)C)C(=O)N1CC2CC2C1 (some centres unmarked) [Compound W-153] | >100 fold
CC(C)(C)[C@H](NC(=O)[C@@H]1COCCN1CC(F)(F)F)c1nc(-c2ccc(-c3ccc(-c4c[nH]c([C@@H](NC(=O)[C@@H]5COCCN5CC(F)(F)F)C(C)(C)C)n4)cc3)cc2)c[nH]1 [Compound L-68] | >100 fold
CC(C)(C)OC(=O)N[C@@H]1CCCC(C(=O)N[C@H](c2nc(-c3ccc(-c4ccc(-c5c[nH]c([C@@H](NC(=O)C6CCC[C@@H](NC(=O)OC(C)(C)C)C6)C(C)(C)C)n5)cc4)cc3)c[nH]2)C(C)(C)C)C1 (some centres unmarked) [Compound S-266] | >100 fold
CC(C)(C)[C@H](NC(=O)[C@@]1(C)CCCCO1)c1nc(-c2ccc(-c3ccc(-c4c[nH]c([C@@H](NC(=O)[C@@]5(C)CCCCO5)C(C)(C)C)n4)cc3)cc2)c[nH]1 [Compound P-176] | >100 fold
O=C(Cc1c[nH]c2ccccc12)N1CCC[C@H]1c1ncc(-c2ccc(-c3ccc(-c4cnc([C@@H]5CCCN5C(=O)Cc5c[nH]c6ccccc56)[nH]4)cc3)cc2)[nH]1 [Compound S-148] | >10 fold
CC(C)(C)OC(=O)N1CCC[C@H]1C(=O)N[C@H](c1nc(-c2ccc(-c3ccc(-c4c[nH]c([C@@H](NC(=O)[C@@H]5CCCN5C(=O)OC(C)(C)C)C(C)(C)C)n4)cc3)cc2)c[nH]1)C(C)(C)C [Compound W-86] | >100 fold
CC(C)(C)[C@H](NC(=O)[C@@H](O)C1CCCCC1)c1nc(-c2ccc(-c3ccc(-c4c[nH]c([C@@H](NC(=O)[C@@H](O)C5CCCCC5)C(C)(C)C)n4)cc3)cc2)c[nH]1 [Compound L-77] | >100 fold
NC(=O)CCC(=O)N1CCC[C@H]1c1ncc(-c2ccc(-c3ccc(-c4cnc([C@@H]5CCCN5C(=O)CCC(N)=O)[nH]4)cc3)cc2)[nH]1 [Compound S-186] | <10 fold
O=C(c1ccc(C(F)(F)F)nc1)N1CCC[C@H]1c1ncc(-c2ccc(-c3ccc(-c4cnc([C@@H]5CCCN5C(=O)c5ccc(C(F)(F)F)nc5)[nH]4)cc3)cc2)[nH]1 [Compound S-140] | >10 fold
CC(C)[C@H](NC(=O)c1cc(Cl)ccc1F)c1nc(-c2ccc3c(c2)CCc2cc(-c4c[nH]c([C@@H](NC(=O)c5cc(Cl)ccc5F)C(C)C)n4)ccc2-3)c[nH]1 [Compound N-76] | >100 fold
CN(C(=O)OC(C)(C)C)C1(C(=O)N[C@H](c2nc(-c3ccc(-c4ccc(-c5c[nH]c([C@@H](NC(=O)C6(N(C)C(=O)OC(C)(C)C)CCC6)C(C)(C)C)n5)cc4)cc3)c[nH]2)C(C)(C)C)CCC1 [Compound L-14] | >100 fold
O=C(CCC1CCCC1)N1CCC[C@H]1c1ncc(-c2ccc(-c3ccc(-c4cnc([C@@H]5CCCN5C(=O)CCC5CCCC5)[nH]4)cc3)cc2)[nH]1 [Compound S-166] | >10 fold
O=C(CCN1CCOCC1)N1CCC[C@H]1c1ncc(-c2ccc(-c3ccc(-c4cnc([C@@H]5CCCN5C(=O)CCN5CCOCC5)[nH]4)cc3)cc2)[nH]1 [Compound S-196] | <10 fold
CC(C)(C)[C@H](NC(=O)C1C2C3CCC(C3)C12)c1nc(-c2ccc(-c3ccc(-c4c[nH]c([C@@H](NC(=O)C5C6C7CCC(C7)C56)C(C)(C)C)n4)cc3)cc2)c[nH]1 (some centres unmarked) [Compound Y-62] | >100 fold
COCCOC(=O)N1C[C@H](F)C[C@H]1C(=O)N[C@H](c1nc(-c2ccc(-c3ccc(-c4c[nH]c([C@@H](NC(=O)[C@@H]5C[C@@H](F)CN5C(=O)OCCOC)C(C)(C)C)n4)cc3)cc2)c[nH]1)C(C)(C)C [Compound W-110] | >100 fold
